In patent US20050014647A1, “Method and composition for determining resistance to an acetohydroxy-acid synthase inhibitor” (priority 2001, published 2005):
“And” between values parts separate entries of the source, which are not always exact repeats. Identical values can stand only once.

How the values were obtained:
Assay type in all cases: cell-based
AHAS [1] = assay: in vivo AHAS assay, canola leaf discs with external supplement; conditions: canola, 14 hours; for % of No Alaninor Pyruvate: Alanine 0 %; for % of 0/0 / OD 530, Avg. of the treated discs / OD 530, Treated: replicates 1-3; for OD 530, Treated: single treated discs
Protocol: The procedure for the preparation of an in vivo AHAS assay is described below:
For the experiments, plants are grown from seed in soil in a greenhouse. Most experiments used wild type and imidazolinone resistant varieties of wheat, canola, rice, sunflower, and maize.
For the assay, a a microtiter plate is set up with 100 μl of one of the following solutions in each well: • a. Solution A: 10 mM phosphate buffer, pH 6; 10% Murashige and Skoog basal mineral salts (according to Murashige, T. and Skoog, F., Physiol. Plant., 15 473-497 (1962)); 500 μM CPCA (cyclopropyldicarboxylic acid); • b. Solution B: Solution A+alanine (or other supplements); • c. Solution C: Solution A+a pyruvate salt (or other supplements).
Plant material is excised from the newest emerging, rapidly growing leaf or stem from the test plant and placed in one of the microtiter plates. Usually, 5 mm leaf discs are cut from the newest emerging leaf. At least 2 discs per plant are cut. One disc is put in a well with Solution A and the other disc in a well with one of the other Solutions B or C (what solution are you using for background?).
After all wells in the microtiter plate contain plant material, the plate is covered with the microtiter plate cover and the plate with material is placed in a chamber with continuous fluorescent lights for 12 to 16 hours. The incubation is stopped by placing the plate in −20° C. freezer. After tissue and solutions freeze, the plate is thawed at room temperature and 25 μL of 5% sulfuric acid are added to each well. After incubation at 60° C. for 15 minutes, 175 μL of a freshly prepared mixture of α-naphthol (2.5%) and creatine (0.25%) in 2 N NaOH are added to each well and the plate is incubated at 60° C. for 15 minutes.
200 μL from each well are transferred to a new plate and OD530 on microtiter plate is readed by a spectrophotometer.

AHAS [2] = assay: AHAS assay of resistant and non-resistant crops, maize stem slices; design: dose or concentration left out as unconfirmed; conditions: imazamox and CPCA, average of four plants
Protocol: (§1) For the experiments, plants are grown from seed in soil in a greenhouse. The experiments used wild type and imidazolinone resistant varieties of maize and wheat.
(§2) For the assay, a microtiter plate is set up with […] of one of the following solutions in each well: • Solution A: 10 mM phosphate buffer (pH 4.4), 10% prepared Murashige and Skoog basal mineral salt stock solution, 0.5% (w/v) alanine, 50 mM pyruvate salt, and 0.5 mM CPCA (cyclopropyldicarboxylic acid); • Solution B: Solution A+0.0025 mM imazamox; • Solution C: Solution A without 0.5 mM CPCA
(§3) Plant material is excised from the newest emerging leaf for wheat or rapidly growing stem for maize from the test plant and placed in one of the microtiter plates. Usually, 3 to 5 mm slices are cut from the newest emerging leaf or stem. At least 3 same-length slices per plant are cut. One disc is put in a well with Solution A, one in a well with Solution B, and the last one in a well with Solution C.
(§4) After all wells in the microtiter plate contain plant material, the plate is covered with a plate cover and is placed under continuous fluorescent lights for 14 to 18 hours. The incubation is stopped by placing the plate in a −20° C. freezer. After tissue and solutions freeze, the plate is thawed at room temperature, and […] of 5% sulfuric acid is added to each well. After incubation at 60° C. for 15 minutes, […] of a freshly prepared mixture of α-naphthol (2.5%, w/v) and creatine (0.25%, w/v) in 2 N NaOH are added to each well and the plate is incubated at 60° C. for 15 minutes.
(§5) A 190 μl solution from each well is transferred to a new plate, and OD530 on microtiter plate is readed by a spectrophotometer.
(§6) AHAS activity of each plant is determined by the following formula: (OD530 of well B−OD530 of well C)/(OD530 of well A−OD530 of well C).

AHAS [3] = assay: AHAS assay of resistant and non-resistant crops, wheat leaf slices; design: dose or concentration left out as unconfirmed; conditions: imazamox and CPCA, average of four plants
Protocol: as §1, §2, §3, §4, §5, §6

CC(=O)C(=O)O [Pyruvate, Na-Pyruvate]
% of No Alaninor Pyruvate (AHAS [1]; Pyruvate 25 mM): 110%
% of No Alaninor Pyruvate (AHAS [1]; Pyruvate 50 mM): 139%
% of No NH4 or Pyruvate (AHAS [1]; NH4 0 mM, Pyruvate 6.25 mM): 109%
% of No NH4 or Pyruvate (AHAS [1]; NH4 0 mM, Pyruvate 12.5 mM): 128%
% of No NH4 or Pyruvate (AHAS [1]; NH4 0 mM, Pyruvate 25 mM): 138%
% of No NH4 or Pyruvate (AHAS [1]; NH4 0 mM, Pyruvate 50 mM): 175%
% of 0/0 (AHAS [1]; Pyruvate (100 mM)): 134% and 153% and 188%
OD 530, Avg. of the treated discs (AHAS [1]; Pyruvate (100 mM)): 1.510 and 1.730 and 1.950
OD 530, Treated (AHAS [1]; Pyruvate (100 mM)): 1.526 and 1.848 and 1.972 and 1.469 and 1.846 and 2.235 and 1.725 and 1.796 and 2.100

COCc1cnc(C2=NC(C)(C(C)C)C(=O)N2)c(C(=O)O)c1 (stereo not shown) [imazamox]
Relative AHAS activity (%) (AHAS [2]; Maize variety Garst 8541 IT (Moderate-resistance)): 45.2%
Relative AHAS activity (%) (AHAS [2]; Maize variety Pioneer 3395 IR (High-resistance)): 67.3%
Relative AHAS activity (%) (AHAS [2]; Maize variety Pioneer 3514 (Non-resistance)): 5.8%
Relative AHAS activity (%) (AHAS [3]; Wheat variety CV 9804 (Moderate-resistance)): 22.4%
Relative AHAS activity (%) (AHAS [3]; Wheat variety Riband (Non-resistance)): 1.5%
Relative AHAS activity (%) (AHAS [3]; Wheat variety Teal 15A (High-resistance)): 57.7%

NC(=O)C[C@H](N)C(=O)O [Asparagine, L-asparagine]
% of 0/0 (AHAS [1]; Asparagine (100 mM)): 107% and 141% and 91%
OD 530, Avg. of the treated discs (AHAS [1]; Asparagine (100 mM)): 1.384 and 0.796 and 1.206
OD 530, Treated (AHAS [1]; Asparagine (100 mM)): 1.011 and 0.718 and 1.279 and 1.343 and 0.880 and 1.094 and 1.843 and 0.907 and 1.186

N.O [NH4OH, ammonium hydroxide]
% of No NH4 or Pyruvate (AHAS [1]; NH4 6.25 mM, Pyruvate 0 mM): 101%
% of No NH4 or Pyruvate (AHAS [1]; NH4 12.5 mM, Pyruvate 0 mM): 138%
% of No NH4 or Pyruvate (AHAS [1]; NH4 25 mM, Pyruvate 0 mM): 128%
% of No NH4 or Pyruvate (AHAS [1]; NH4 50 mM, Pyruvate 0 mM): 142%
% of 0/0 (AHAS [1]; NH4OH (50 mM)): 113% and 111% and 157%
OD 530, Avg. of the treated discs (AHAS [1]; NH4OH (50 mM)): 0.697 and 0.886 and 1.386
OD 530, Treated (AHAS [1]; NH4OH (50 mM)): 0.604 and 0.880 and 1.386 and 0.522 and 0.866 and 1.177 and 1.003 and 0.953 and 1.845
